Reference: US5061794A, “Cephalosporin derivatives, and antibacterial agents” (priority 1986, dated 1991)
Where a name gives a salt, the structure may show the parent alone. Read-outs that look alike come from different tables or passages of the source.

Assays:
Ps. cepacia 23 = assay: in vitro antibacterial activity, agar plate dilution method (MIC); assay type: cell-based, Pseudomonas cepacia; conditions: Burkholderia cepacia, 23, 16 h, read-out: Minimum Inhibitory Concentration (MIC)
Description: (§1) The in vitro antibacterial activities of the compounds of the present invention against various microorganisms, were measured by the following agar plate dilution method. One platinum loopfull of each test microorganism incubated overnight in Mueller Hinton broth, was inoculated to Mueller Hinton agar (inoculum size: 10^6 CFU/ml). Such culture media containing various antibiotics in various concentrations were prepared. After incubation at 37° C. for 16 hours, the minimum inhibitory concentrations (MIC: μg/ml) were measured.

P. vulgaris HX-19 = assay: as above; assay type: cell-based; conditions: Proteus vulgaris, HX19, 16 h, P. vulgaris HX-19; 10^6 CFU/ml; read-out: Minimum Inhibitory Concentration (MIC)
Description: as §1

K. pneumoniae PCI-602 = assay: as above; assay type: cell-based; conditions: Klebsiella pneumoniae, PCI602, 16 h, read-out: Minimum Inhibitory Concentration (MIC), K. pneumoniae PCI-602; 10^6 CFU/ml
Description: as §1

S. marcescens IAM 1184 = assay: as above; assay type: cell-based; conditions: Serratia marcescens, IAM1184, 16 h, read-out: Minimum Inhibitory Concentration (MIC)
Description: as §1

E. coli NIHJ JC2 = assay: as above; assay type: cell-based; conditions: Escherichia coli
Description: as §1

M. morganii GN5407 = assay: as above; assay type: cell-based; conditions: Morganella morganii, 10^6 CFU/ml
Description: as §1

S. marcescens No. 16-2 = assay: as above; assay type: cell-based; conditions: Serratia marcescens, NO.162, 16 h, 10^6 CFU/ml
Description: as §1

E. cloacae Nek 39 = assay: as above; assay type: cell-based; conditions: Enterobacter cloacae, NEK39, 16 h, 10^6 CFU/ml
Description: as §1

S. aureus 209P NIHJ-JC1 = assay: as above; assay type: cell-based; conditions: Staphylococcus aureus, 16 h, read-out: Minimum Inhibitory Concentration (MIC)
Description: as §1

E. coli GN5482 = assay: as above; assay type: cell-based; conditions: Escherichia coli, read-out: Minimum Inhibitory Concentration (MIC)
Description: as §1

P. vulgaris No. 33 = assay: as above; assay type: cell-based; conditions: Proteus vulgaris, 10^6 CFU/ml
Description: as §1

E. cloacae 963 = assay: as above; assay type: cell-based; conditions: 10^6 CFU/ml
Description: as §1

K. pneumoniae No. 42 = assay: as above; assay type: cell-based; conditions: Klebsiella pneumoniae, 10^6 CFU/ml
Description: as §1

K. oxytoca GN10650 = assay: as above; assay type: cell-based; conditions: Klebsiella oxytoca, 10^6 CFU/ml
Description: as §1

E. coli CSH(RE45) = assay: microbe, parasite or virus in culture; assay type: cell-based; conditions: Escherichia coli, 16 h, read-out: Minimum Inhibitory Concentration (MIC), *E. coli CSH(RE45), lactamase-producing strain; 10^6 CFU/ml
Description: as §1

E. coli CSH2 (RK1) = assay: microbe, parasite or virus in culture; assay type: cell-based; conditions: Escherichia coli, 16 h, read-out: Minimum Inhibitory Concentration (MIC), *E. coli CSH2 (RK1), lactamase-producing strain; 10^6 CFU/ml
Description: as §1

Ps. aeruginosa IF03445 = assay: in vitro antibacterial activity, agar plate dilution method (MIC); assay type: cell-based, Pseudomonas aeruginosa; conditions: Pseudomonas aeruginosa, 16 h; Ps. aeruginosa IF03445; 10^6 CFU/ml; read-out: Minimum Inhibitory Concentration (MIC)
Description: as §1

Ps. aeruginosa AKR17 = assay: as above; assay type: cell-based, Pseudomonas aeruginosa; conditions: Pseudomonas aeruginosa, 16 h; Ps. aeruginosa AKR17; 10^6 CFU/ml; read-out: Minimum Inhibitory Concentration (MIC)
Description: as §1

Ps. aeruginosa AK 109 = assay: as above; assay type: cell-based, Pseudomonas aeruginosa; conditions: Pseudomonas aeruginosa, AK109, 16 h, Ps. aeruginosa AK 109; 10^6 CFU/ml; read-out: Minimum Inhibitory Concentration (MIC)
Description: as §1

A. calcoaceticus No. 4 = assay: as above; assay type: cell-based, Acinetobacter calcoaceticus; conditions: Acinetobacter calcoaceticus, NO.4, 16 h, A. calcoaceticus No. 4; 10^6 CFU/ml; read-out: Minimum Inhibitory Concentration (MIC)
Description: as §1

Structure (SMILES) | MIC (Ps. cepacia 23) [mg/L] | MIC (P. vulgaris HX-19) [mg/L] | MIC (K. pneumoniae PCI-602) [mg/L] | MIC (S. aureus 209P NIHJ-JC1) [mg/L] | MIC (E. coli CSH(RE45)) [mg/L] | MIC (E. coli CSH2 (RK1)) [mg/L] | MIC (Ps. aeruginosa IF03445) [mg/L] | MIC (Ps. aeruginosa AKR17) [mg/L] | MIC (Ps. aeruginosa AK 109) [mg/L] | MIC (A. calcoaceticus No. 4) [mg/L] | further results
CO/N=C(\C(=O)N[C@@H]1C(=O)N2C(C(=O)O)=C(CSc3nc(-c4ccc(O)cc4)c(CC(=O)O)s3)CS[C@H]12)c1csc(N)n1 [compound 17, disodium 7β-[2-(2-aminothiazol-4-yl)-2-methoxyminoacetamido]-3-[5-carboxylatemethyl-4-(4-hydroxyphenyl)thiazol-2-yl]thiomethyl-3-cephem-4-carboxylate, reference compound] | 6.25 | < 0.006 | 0.1 | 3.12 | 0.78 | 0.39 | 50 | > 100 | 50 | 100 | MIC (S. marcescens IAM 1184): 0.39 mg/L; MIC (E. coli NIHJ JC2; NIHJJC2, 16 h, read-out: Minimum Inhibitory Concentration (MIC), E. coli NIHJ JC2, 10^6 CFU/ml, 37° C.): 0.39 mg/L; MIC (M. morganii GN5407; GN5407, 16 h, read-out: Minimum Inhibitory Concentration (MIC), *M. morganii GN5407, lactamase-producing strain): 0.39 mg/L; MIC (S. marcescens No. 16-2; *S. marcescens No. 16-2, lactamase-producing strain, read-out: Minimum Inhibitory Concentration (MIC)): 100 mg/L; MIC (E. cloacae Nek 39; read-out: Minimum Inhibitory Concentration (MIC), *E. cloacae Nek 39, lactamase-producing strain): 12.5 mg/L; MIC (E. coli GN5482; GN5482, 16 h): 3.12 mg/L; MIC (P. vulgaris No. 33; NO.33, 16 h, read-out: Minimum Inhibitory Concentration (MIC), *P. vulgaris No. 33, lactamase-producing strain): 0.1 mg/L; MIC (E. cloacae 963; Enterobacter cloacae, 963, 16 h, read-out: Minimum Inhibitory Concentration (MIC), E. cloacae 963): 0.39 mg/L; MIC (K. pneumoniae No. 42; NO.42, 16 h, read-out: Minimum Inhibitory Concentration (MIC), *K. pneumoniae No. 42, lactamase-producing strain): 0.78 mg/L; MIC (K. oxytoca GN10650; 16 h, *K. oxytoca GN10650, lactamase-producing strain, read-out: Minimum Inhibitory Concentration (MIC)): 25 mg/L
CO/N=C(\C(=O)N[C@@H]1C(=O)N2C(C(=O)O)=C(CSc3nnc(-c4ccccc4)o3)CS[C@H]12)c1csc(N)n1 [compound 1, 7β-[2-(2-aminothiazol-4-yl)-2-methoxyiminoacetamido]-3-(5-phenyl-1,3,4-oxadiazol-2-yl)thiomethyl-3-cephem-4-carboxylic acid trifluoroacetate, reference compound] | 12.5 | < 0.006 | 0.0125 | 0.39 | 0.39 | 0.39 | > 100 | > 100 | 50 | 100 | MIC (S. marcescens IAM 1184; S. marcescens IAM 1184, 10^6 CFU/ml): 1.56 mg/L; MIC (E. coli NIHJ JC2; NIHJJC2, E. coli NIHJ JC2, 10^6 CFU/ml, 37° C., 16 hours, read-out: Minimum Inhibitory Concentration (MIC)): 0.78 mg/L; MIC (M. morganii GN5407; 16 h, *M. morganii GN5407, lactamase-producing strain, read-out: Minimum Inhibitory Concentration (MIC)): 0.78 mg/L; MIC (S. marcescens No. 16-2; read-out: Minimum Inhibitory Concentration (MIC), *S. marcescens No. 16-2, lactamase-producing strain): 6.25 mg/L; MIC (E. cloacae Nek 39; *E. cloacae Nek 39, lactamase-producing strain, read-out: Minimum Inhibitory Concentration (MIC)): 3.12 mg/L; MIC (E. coli GN5482; 16 h, *E. coli GN5482, lactamase-producing strain, 10^6 CFU/ml): 0.78 mg/L; MIC (P. vulgaris No. 33; 16 h, *P. vulgaris No. 33, lactamase-producing strain, read-out: Minimum Inhibitory Concentration (MIC)): 0.78 mg/L; MIC (E. cloacae 963; Enterobacter cloacae, 16 h, E. cloacae 963, read-out: Minimum Inhibitory Concentration (MIC)): 1.56 mg/L; MIC (K. pneumoniae No. 42; 16 h, *K. pneumoniae No. 42, lactamase-producing strain, read-out: Minimum Inhibitory Concentration (MIC)): 1.56 mg/L; MIC (K. oxytoca GN10650; GN10650, 16 h, read-out: Minimum Inhibitory Concentration (MIC), *K. oxytoca GN10650, lactamase-producing strain): 6.25 mg/L
